Source: patent publication US9073876B2, “Flap modulators” (JANSSEN PHARMACEUTICA NV, priority 2013, dated 2015)
Where a name gives a salt, the structure may show the parent alone.

Tests used:
[1] = system: leukotriene pathway in human whole blood (LTB4 levels); assay: Human whole blood assay (LTB4); assay type: cell-based; settings: human whole blood diluted 1:1 in RPMI, stimulated with calcium ionophore A23187; single replicate
Procedure, shortened: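 Blood (heparin) diluted 1:1 RPMI; compound pre-incubation 15 min, 37° Celsius; A23187 7 μg/mL, 30 min, 37° Celsius; plasma LTB4 by commercial kit. IC50 via 4-parameter equation.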

[2] = target: human FLAP (Homo sapiens (Human), UniProt P20292); assay: FLAP binding assay (HTRF); settings: human FLAP-containing membranes, HTRF format; average of two assay plates, duplicates; read-out: FLAP Binding wild type HTRF Ki
Procedure, shortened: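 Binding values are averages from two separate assay plates, with each sample run in duplicate per plate. Data are expressed as an HTRF ratio.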

Chain of human FLAP (P20292 whole entry): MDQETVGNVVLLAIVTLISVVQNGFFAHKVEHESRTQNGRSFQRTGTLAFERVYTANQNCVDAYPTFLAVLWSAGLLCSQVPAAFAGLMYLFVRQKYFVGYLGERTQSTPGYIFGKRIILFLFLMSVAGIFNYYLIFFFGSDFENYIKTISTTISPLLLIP

| SMILES | IC50 [1] [nM] | Ki [2] [nM] |
| --- | --- | --- |
| COC(=O)c1ccnc(Oc2c(C3CCC3)ccc(-c3cnc(N)cn3)c2F)n1 [Example 151, methyl 2-[3-(5-aminopyrazin-2-yl)-6-cyclobutyl-2-fluorophenoxy]pyrimidine-4-carboxylate] | 75.4 | 8.9 |
| Nc1cnc(-c2ccc(C3CCC3)c(Oc3nccc(C(=O)O)n3)c2F)cn1 [Example 152, 2-[3-(5-Aminopyrazin-2-yl)-6-cyclobutyl-2-fluorophenoxy]pyrimidine-4-carboxylic acid] | > 10000 | 62.5 |
| Nc1cnc(-c2ccc(C3CCC3)c(Oc3ccc(C(=O)O)cc3)c2F)cn1 [Example 153, 4-[3-(5-Aminopyrazin-2-yl)-6-cyclobutyl-2-fluorophenoxy]benzoic acid] | 424 | 2.3 |
| Nc1cnc(-c2ccc(C3CCC3)c(Oc3ccc(C(=O)O)cn3)c2F)cn1 [Example 154, 6-[3-(5-Aminopyrazin-2-yl)-6-cyclobutyl-2-fluorophenoxy]pyridine-3-carboxylic acid] | > 10000 | 12.5 |
| NC(=O)c1ccnc(Oc2c(C3CCC3)ccc(-c3cnc(N)cn3)c2F)n1 [Example 157, 2-[3-(5-Aminopyrazin-2-yl)-6-cyclobutyl-2-fluorophenoxy]pyrimidine-4-carboxamide] | 109 | 20.6 |
| Nc1cnc(Oc2c(C3CCC3)ccc(-c3cnc(N)cn3)c2F)nc1 [Example 158, 2-[3-(5-Aminopyrazin-2-yl)-6-cyclobutyl-2-fluorophenoxy]pyrimidin-5-amine] | 35.9 | 7.8 |
| COc1c(C2CCC2)ccc(-c2cnc(N)nc2)c1F [Example 159, 5-(4-cyclobutyl-2-fluoro-3-methoxyphenyl)pyrimidin-2-amine] | 3310 | 55.7 |
| Nc1ncc(-c2ccc(C3CCC3)c(Oc3ncccn3)c2F)cn1 [Example 160, 5-[4-Cyclobutyl-2-fluoro-3-(pyrimidin-2-yloxy)phenyl]pyrimidin-2-amine] | 494 | 94.7 |
| Nc1ccnc(Oc2c(C3CCC3)ccc(-c3cnc(N)nc3)c2F)n1 [Example 161, 5-{3-[(4-Aminopyrimidin-2-yl)oxy]-4-cyclobutyl-2-fluorophenyl}pyrimidin-2-amine] | 88 | 22.2 |
| COCc1cc(Oc2c(C3CCC3)ccc(-c3cnc(N)nc3)c2F)nc(N)n1 [Example 162, 4-[3-(2-Aminopyrimidin-5-yl)-6-cyclobutyl-2-fluorophenoxy]-6-(methoxymethyl)pyrimidin-2-amine] | 124 | 7.2 |
| Cc1ccnc(Oc2c(C3CCC3)ccc(-c3cnc(N)nc3)c2F)n1 [Example 163, 5-{4-Cyclobutyl-2-fluoro-3-[(4-methylpyrimidin-2-yl)oxy]phenyl}pyrimidin-2-amine] | 494 | 70.4 |
| Nc1cc(Oc2c(C3CCC3)ccc(-c3cnc(N)nc3)c2F)ncn1 [Example 164, 5-{3-[(6-Aminopyrimidin-4-yl)oxy]-4-cyclobutyl-2-fluorophenyl}pyrimidin-2-amine] | 118 | 36.8 |
| CC(C)c1ccnc(Oc2c(C3CCC3)ccc(-c3cnc(N)nc3)c2F)n1 [Example 165, 5-(4-Cyclobutyl-2-fluoro-3-{[4-(1-methylethyl)pyrimidin-2-yl]oxy}phenyl)pyrimidin-2-amine] | 304 | 5.6 |
| Nc1ncc(-c2ccc(C3CCC3)c(Oc3ccnc(N)n3)c2F)cn1 [Example 166, 4-[3-(2-Aminopyrimidin-5-yl)-6-cyclobutyl-2-fluorophenoxy]pyrimidin-2-amine] | 129 | 11.7 |
| Cc1cc(C)nc(Oc2c(C3CCC3)ccc(-c3cnc(N)nc3)c2F)n1 [Example 167, 5-{4-Cyclobutyl-3-[(4,6-dimethylpyrimidin-2-yl)oxy]-2-fluorophenyl}pyrimidin-2-amine] | 45.6 | 14.7 |
| CC(C)c1cc(Oc2c(C3CCC3)ccc(-c3cnc(N)nc3)c2F)nc(N)n1 [Example 168, 4-(3-(2-aminopyrimidin-5-yl)-6-cyclobutyl-2-fluorophenoxy)-6-isopropylpyrimidin-2-amine] | 36.1 | 2.8 |

Now from value to compound:

| IC50 [1] [nM] | Ki [2] [nM] | SMILES |
| --- | --- | --- |
| 268 | 205 | NC(=O)c1ccnc(Oc2c(C3CCC3)ccc(-c3cnc(N)nc3)c2F)n1 [Example 169, 2-[3-(2-Aminopyrimidin-5-yl)-6-cyclobutyl-2-fluorophenoxy]pyrimidine-4-carboxamide] |
| 1430 | 90.3 | COc1cc(Oc2c(C3CCC3)ccc(-c3cnc(N)nc3)c2F)ncn1 [Example 170, 5-(4-cyclobutyl-2-fluoro-3-((6-methoxypyrimidin-4-yl)oxy)phenyl)pyrimidin-2-amine] |
| 252 | 39.8 | Nc1ncc(-c2ccc(C3CCC3)c(Oc3cc(O)ncn3)c2F)cn1 [Example 171, 6-[3-(2-Aminopyrimidin-5-yl)-6-cyclobutyl-2-fluorophenoxy]pyrimidin-4-ol trifluoroacetate] |
| 1660 | 394 | COc1c(C2CCC2)ccc(-c2ncc(N)nc2C#N)c1F [Example 172, 6-amino-3-(4-cyclobutyl-2-fluoro-3-methoxyphenyl)pyrazine-2-carbonitrile] |
| 1210 | 5.4 | N#Cc1nc(N)cnc1-c1ccc(C2CCC2)c(OCc2cccc(C(=O)O)c2)c1F [Example 174, 3-{[3-(5-Amino-3-cyanopyrazin-2-yl)-6-cyclobutyl-2-fluorophenoxy]methyl}benzoic acid] |
| 1280 | 100 | COc1c(C2CCC2)ccc(-c2cnc3[nH]ccc3n2)c1F [Example 175, 2-(4-cyclobutyl-2-fluoro-3-methoxyphenyl)-5H-pyrrolo[2,3-b]pyrazine] |
| 10000 | 41 | Nc1ccc(-c2ccc(C3CCC3)c(OCc3ccc(C(=O)O)cc3)c2F)cn1 [Example 181, 4-((3-(6-Aminopyridin-3-yl)-6-cyclobutyl-2-fluorophenoxy)methyl)benzoic acid] |
| > 10000 | 328 | COc1c(C2CCC2)ccc(-c2cnc3[nH]cnc3c2)c1F [Example 183, 6-(4-Cyclobutyl-2-fluoro-3-methoxyphenyl)-3H-imidazo[4,5-b]pyridine] |
| 831 | 14 | COc1c(C2CCC2)ccc(-c2cnc3c(c2)OCCN3)c1F [Example 184, 7-(4-cyclobutyl-2-fluoro-3-methoxyphenyl)-3,4-dihydro-2H-pyrido[3,2-b][1,4]oxazine] |
| 1010 | 19.6 | Oc1c(C2CCC2)ccc(-c2cnc3c(c2)OCCN3)c1F [Example 185, 6-cyclobutyl-3-(3,4-dihydro-2H-pyrido[3,2-b][1,4]oxazin-7-yl)-2-fluorophenol] |
| 531 | 20.5 | Fc1c(-c2cnc3c(c2)OCCN3)ccc(C2CCC2)c1OCc1ccccc1 [Example 186, 7-[3-(Benzyloxy)-4-cyclobutyl-2-fluorophenyl]-3,4-dihydro-2H-pyrido[3,2-b][1,4]oxazine] |
| 355 | 12 | N#Cc1cccc(COc2c(C3CCC3)ccc(-c3cnc4c(c3)OCCN4)c2F)c1 [Example 187, 3-{[6-Cyclobutyl-3-(3,4-dihydro-2H-pyrido[3,2-b][1,4]oxazin-7-yl)-2-fluorophenoxy]-methyl}-benzonitrile] |
| 1100 | 8.6 | CS(=O)(=O)c1cccc(COc2c(C3CCC3)ccc(-c3cnc4c(c3)OCCN4)c2F)c1 [Example 188, 7-(4-Cyclobutyl-2-fluoro-3-{[3-(methylsulfonyl)-benzyl]oxy}phenyl)-3,4-dihydro-2H-pyrido[3,2-b][1,4]oxazine] |
| 1140 | 9.8 | CS(=O)(=O)c1ccc(COc2c(C3CCC3)ccc(-c3cnc4c(c3)OCCN4)c2F)cc1 [Example 189, 7-(4-Cyclobutyl-2-fluoro-3-{[4-(methylsulfonyl)-benzyl]-oxy}-phenyl)-3,4-dihydro-2H-pyrido[3,2-b][1,4]oxazine] |
| 1060 | 47.2 | N#Cc1ccc(COc2c(C3CCC3)ccc(-c3cnc4c(c3)OCCN4)c2F)cc1 [Example 190, 4-{[6-Cyclobutyl-3-(3,4-dihydro-2H-pyrido[3,2-b][1,4]oxazin-7-yl)-2-fluorophenoxy]-methyl}-benzonitrile] |
| 3430 | 250 | Fc1c(-c2cnc3c(c2)OCCN3)ccc(C2CCC2)c1OCc1ccc(C(F)(F)F)cc1 [Example 191, 7-(4-Cyclobutyl-2-fluoro-3-{[4-(trifluoromethyl)benzyl]oxy}phenyl)-3,4-dihydro-2H-pyrido[3,2-b][1,4]oxazine] |
| 418 | 5.3 | NC(=O)c1cccc(COc2c(C3CCC3)ccc(-c3cnc4c(c3)OCCN4)c2F)c1 [Example 192, 3-{[6-Cyclobutyl-3-(3,4-dihydro-2H-pyrido[3,2-b][1,4]oxazin-7-yl)-2-fluorophenoxy]-methyl}-benzamide] |
| 769 | 3.7 | NC(=O)c1ccc(COc2c(C3CCC3)ccc(-c3cnc4c(c3)OCCN4)c2F)cc1 [Example 193, 4-{[6-Cyclobutyl-3-(3,4-dihydro-2H-pyrido[3,2-b][1,4]oxazin-7-yl)-2-fluorophenoxy]-methyl}-benzamide] |
| 168 | 2.9 | Fc1c(-c2cnc3c(c2)OCCN3)ccc(C2CCC2)c1Oc1cccc(C(F)(F)F)n1 [Example 194, 7-(4-Cyclobutyl-2-fluoro-3-{[6-(trifluoromethyl)pyridin-2-yl]oxy}phenyl)-3,4-dihydro-2H-pyrido[3,2-b][1,4]oxazine] |
| 446 | 2.2 | O=C(O)Cc1ccc(COc2c(C3CCC3)ccc(-c3cnc4c(c3)OCCN4)c2F)cc1 [Example 195, (4-{[6-cyclobutyl-3-(3,4-dihydro-2H-pyrido[3,2-b][1,4]oxazin-7-yl)-2-fluorophenoxy]methyl}phenyl)acetic acid] |
